# Source: patent US5411943A, “Hepatoma treatment with somatostatin analogs” (Biomeasure, Inc., priority 1992, dated 1995)
# Key:
# [1] = test system: M5123 hepatoma; assay: Subcutaneous tumor assay, M5123 hepatoma implanted s.c. in Buffalo strain rats; format: in vivo, rat; settings: for Final Tumor Size Day 15 / Percent Test/Control: 500 μg analog/inj.; for Final Tumor Size Day 15: mean ± S.D.; for Percent Test/Control: day 15
# Excerpt: (§1) The M5123 hepatoma cells, obtained from Dr. H. P. Morris at the National Cancer Institute, were induced in the Buffalo strain of rats by ingestion of N-(2-fluorenylphthalamic acid) and established in serial transplantation. Implantation of the M5123 hepatoma cells in an immunodeficient athymic mouse or Buffalo strain rat reproducibly results in a progressively growing, lethal tumor.
# (§2) To determine the growth inhibitory effect of bombesin analogs on hepatoma cells, two in vivo assay systems, the subcutaneous tumor assay in the syngeneic Buffalo strain rat and the subrenal capsule assay using the immunodeficient athymic nude mouse were employed.
# In the subcutaneous assay, tumor grafts are implanted subcutaneously and treatment can be initiated at any selected time after the implantation.
# In this assay, 20 male Buffalo strain rats were implanted s.c., right flank, with a 2 mm^3 mince of the M5123 hepatoma in the a.m. of day zero. The animals were individually identified and then randomized 10 rats in the control and 5 rats per test group. […] Tumor sizes were determined with Vernier calipers twice weekly and size calculated as the average of two diameters (length+width/2) mm.
# [2] = test system: M5123 hepatoma; assay: Subrenal capsule assay (SRCA), M5123 rat hepatoma xenografts in athymic female mice; format: in vivo, mouse; settings: s.c., b.i.d., q.d. 1-9; for Change in Tumor Size between day 0 and day 10: mean ± s.e.m.
# Excerpt: as §1, §2
# SRCA was designed as a rapid in vivo method for testing chemotherapeutic agents against tumor xenografts prepared from solid malignancies. As an antitumor screening procedure, tumors, both human and murine, can be tested as xenografts in athymic female mice. For detailed description of this assay, see Bogden, A. E. et al. A rapid screening method for testing chemotherapeutic agents against human tumor xenografts. In: Proc. Symp. Use of Athymic (Nude) Mice in Cancer Research, p. 231, Edited by Houchens et al., Gustav Fisher, N.Y. (1978).
# Further, an in situ determination of tumor xenograft size at time of implantation and again at termination of the assay, permits use of the very simple parameter of change in tumor size for evaluating tumor sensitivity to the analog. Since the initial measurement provides each xenograft with its own baseline for evaluating drug effects, one can measure tumor response to drugs in terms of progression, stabilization, partial remission and complete remission, which are parameters that have clinical relevance.
# In this assay, xenografts prepared from the transplantation-established M5123 hepatoma were first implanted in immunodeficient athymic female mice, followed by treatment with BIM-23014, in assays of 10-day duration. Thirty two athymic female mice were implanted under the renal capsule with 1 mm cubed grafts of the M5123 rat hepatoma on day zero. Treatment with the analog was initiated on day one at 500, 250 and 50 μg per injection, s.c., b.i.d., on a q.d. 1-9 schedule. On day 10, the mice were sacrificed, the kidney was removed and the size of the tumor was measured to determine changes in tumor size between day 0 and day 10.
# More specifically, the size of the tumor was measured in situ by means of a stereoscope, which was fitted with an ocular micrometer calibrated in ocular units (OMU, 10 OMU=1 mm). For each tumor, two perpendicular diameters were measured and the difference in mean tumor diameter over the 10-day period was calculated.
# [3] = Body weight change (systemic toxicity) in the subcutaneous assay; format: in vivo, rat; settings: for Final Body Weight/Initial Body Weight ratio: q.d. 0-15 (control 1.15)
# Protocol: In this assay, 20 male Buffalo strain rats were implanted s.c., right flank, with a 2 mm^3 mince of the M5123 hepatoma in the a.m. of day zero. The animals were individually identified and then randomized 10 rats in the control and 5 rats per test group. An somatostatin analog used in the invention, H-D-β-Nal-Cys-Tyr-D-Trp-Lys-Val-Cys-Thr-NH2 (code name: BIM-23014), was administered b.i.d. Monday through Friday, and as a single total daily dose on Saturday and Sunday. Tumor sizes were determined with Vernier calipers twice weekly and size calculated as the average of two diameters (length+width/2) mm.
# Since neoplasms maintain autonomous growth by autocrine and paracrine growth factors, the importance of attaining therapeutic concentrations of an antigrowth factor such as BIM-23014 at the tumor site is emphasized in this study. […] Control Final Body Weight/Initial Body Weight ratio was 1.15, as compared to 1.06 for group 2 and 1.12 for group 3.
smiles,measurement,setting,value
"CC(C)[C@@H]1NC(=O)[C@H](CCCCN)NC(=O)[C@@H](Cc2c[nH]c3ccccc23)NC(=O)[C@H](Cc2ccc(O)cc2)NC(=O)[C@@H](NC(=O)[C@H](N)Cc2ccc3ccccc3c2)CSSC[C@@H](C(=O)N[C@H](C(N)=O)[C@@H](C)O)NC1=O [BIM-23014, H-D-β-Nal-Cys-Tyr-D-Trp-Lys-Val-Cys-Thr-NH2]",Final Tumor Size Day 15,"[1]; s.c. infusion (perilesional) b.i.d., q.d. 0-15",10.2 ± 5.6 mm
same,Percent Test/Control,"[1]; s.c. infusion b.i.d., q.d. 0-15",62%
same,Final Tumor Size Day 15,"[1]; s.c., b.i.d., q.d. 0-15 (flank opposite from tumor)",16.8 ± 2.4 mm
same,Percent Test/Control,"[1]; s.c., b.i.d., q.d. 0-15",102%
same,Tumor inhibitory effect (in words),"[1]; s.c. on the flank opposite from the tumor, 500 μg/inj.",no tumor inhibitory effects
same,Growth of the M5123 hepatoma (in words),"[1]; s.c. perilesional infusion, 500 μg/inj., p<0.01",significantly inhibited
same,% Test/Control,[2]; 50 μg analog/inj.,93%
same,Change in Tumor Size between day 0 and day 10,[2]; 50 μg analog/inj.,37.00 ± 1.80 omu
same,Inhibition (antitumor activity),[2]; 50 μg,7%
same,% Test/Control,[2]; 250 μg analog/inj.,77%
same,Change in Tumor Size between day 0 and day 10,[2]; 250 μg analog/inj.,30.56 ± 3.61 omu
same,Reduction in the growth of the tumor,[2]; 250 μg/injection,about 25%
same,% Test/Control,[2]; 500 μg analog/inj.,84%
same,Change in Tumor Size between day 0 and day 10,[2]; 500 μg analog/inj.,33.38 ± 2.19 omu
same,Inhibition (antitumor activity),[2]; 500 μg,16%
same,Systemic toxic effects from treatment as indicated by body weight loss (in words),"[3]; 500 μg/inj., b.i.d., q.d. 0-15",no evidence of systemic toxic effects
same,Final Body Weight/Initial Body Weight ratio,"[3]; group 2: 500 μg/inj., s.c., b.i.d.",1.06
same,Final Body Weight/Initial Body Weight ratio,"[3]; group 3: 500 μg/inj., s.c. infusion b.i.d.",1.12
